In publication PMC6264193, “Synthesis and Biological Evaluation of Novel ^99mTc-Labelled Bisphosphonates as Superior Bone Imaging Agents” (Molecules, 2011):

Legend:
bone resorption = test system: bone resorption; parameters: method as in PMID 18593621; settings: preclinical models of bone resorption; cited from earlier work

| Compound | melting point [°C] | potency relative to clodronate and pamidronate (bone resorption) | potency relative to etidronate (bone resorption) |
| --- | --- | --- | --- |
| Cc1nccn1CCC(O)(P(=O)(O)O)P(=O)(O)O [Compound 4a, 1-Hydroxy-3-(2-methyl-1H-imidazol-1-yl)propane-1,1-diyldiphosphonic acid] | 183 to 186 | – | – |
| Cc1nccn1CCCC(O)(P(=O)(O)O)P(=O)(O)O [Compound 4b, 1-Hydroxy-4-(2-methyl-1H-imidazol-1-yl)butane-1,1-diyldiphosphonic acid] | 142 to 145 | – | – |
| Cc1nccn1CCCCC(O)(P(=O)(O)O)P(=O)(O)O [Compound 4c, 1-Hydroxy-5-(2-methyl-1H-imidazol-1-yl)pentane-1,1-diyldiphosphonic acid] | 212 to 215 | – | – |
| O=P(O)(O)C(O)(Cn1ccnc1)P(=O)(O)O [ZL, 1-hydroxy-2-(imidazol-1-yl)-ethylidene-1,1-bisphosphonic acid] | – | at least 100 times | at least 1,000 times |
